The results in this text go back to patent publication US20260042801A1, “COMPOSITIONS AND METHODS FOR DYE-BOUND CYCLIZED PEPTIDES FOR MEDICAL USE” (The Texas A&M University System, priority 2022, published 2026).

Experiment [1] concerns severe T8 contusion/compression SCI. The experiment in a line: Preclinical SCI model: histological analysis of spinal cord. The class given is in vivo, mouse. As to conditions: 7 weeks post injury. An excerpt: FIGS. 11A-11E: Histological analysis of spinal cords after 5c(i) treatment. […] 7 weeks post injury, spinal cords were sectioned sagittal to conduct histological analyses. Value of 11A) change in intensity of 5-HT, average fluorescence intensity of 11B) IBA1 and 11C) CD68, and number of 11D) CD68+ and 11E) SOX9+ cells in relation to distance from injury (− value represents rostral to injury, + value represents caudal to injury). […] N=6-8. Graphs show mean and SEM. […] Student's T-test.
Mice were sacrificed 7 weeks after injury by a lethal dose of Fatal plus (pentobarbital), then, transcardial perfusion was performed with PBS-Heparin (10,000 unit/L, 20 mL, 5 mL/min) followed by a 4% paraformaldehyde fixative solution (30 mL/mouse, at 5 mL/min). Right after perfusion, tissues were immersed in 4% PFA for 24 hours, transferred to 15% sucrose for 24 hours, then transferred to 30% sucrose for 24 hours before being embedded. Subsequently, the spinal cords (at injury site±1 mm) were cut into 25 μm-thick transverse sections using a freezing microtome (THERMO FISHER SCIENTIFIC® (laboratory reagents), Microm HM550). For immunohistochemistry (IHC), the spinal cord tissue sections were placed in a blocking solution (5% BSA, 0.4% Triton X-100, PBS) for 1 hour at room temperature. This was followed by overnight incubation with primary antibodies at room temperature. The tissue sections were subsequently washed 3 times with 0.4% Triton X-100-PBS, followed by 1 hour incubation at room temperature with the appropriate secondary antibodies (1:500, INVITROGEN™ (laboratory reagents) ALEXA FLUOR® (fluorescent dyes) Plus series). The primary antibodies included biotinylated NeuN (EMD MILLIPORE® (pharmaceuticals and chemicals), MAB377B, 1:500), rat GFAP (FISHER SCIENTIFIC® (laboratory reagents), 130300, 1:500), rabbit Iba1 (FUJIFILM® (camera components) Wako Chemicals, 019-19741, 1:500), rat CD68 (BIO-RAD®, (electrophoresis and chromatography materials) MCA1957, 1:500), goat SOX9 (R&D SYSTEMS® (biological reagents), AF3075, 1:500), and rabbit anti-5-HT (ImmunoStar, 20080, 1:500). Sections were stained with DAPI (1:5000, Millipore Sigma) to visualize the nucleus. The images were acquired using VS120 Virtual Slide Microscope (Olympus) and Axio Observer 7 (ZEISS® (optical products)) and analyzed with QuPath 0.4.3. The contour (polygonal) tool in the Zen 3.2 (Carl Zeiss AG, Jena, Germany) software was used to trace and measure lesion and cavity size. The lesion size was measured by tracing the glial scar border labeled with GFAP surrounding a DAPI^+ inner region. Cavity size was measured by measuring the region within the spinal cord without any visible nuclei yet surrounded by GFAP labeled glial scar. Three spinal cord sections per animal were imaged and analyzed. The 3 sections included the section containing the largest lesion size along with sections 300 μm rostral and caudal. Images were quantified using QuPath software. Eight boxes with a width of 200 μm were drawn both rostral and caudal of the injury epicenter. A contour polygon was made around the spinal cord in each of the sixteen boxes. Fluorescent intensity and cell counting was conducted using automated QuPath software. Histological analysis on liver tissue was conducted by sectioning the left lobe of the liver into 8 μm-thick transverse sections. […] Collagen accumulation was quantified using automated QuPath software to determine the extent of fibrosis.

The next experiment relates to Synapsin I. The experiment in a line: Astrocyte Synapsin I staining (fluorescent intensity). The class given is cell-based, mouse. The note with it: astrocytes from 6-month-old male mice, 5 μM, 3 days. How it is done: FIGS. 4A-4D: 5c(i) induces Synapsin I production and reduces C3 and GSK-3s expression from astrocytes promoting neuron survival and neurite growth. Primary adult cortical astrocytes from 6-month-old male mice were incubated with 5 μM 5c(i) for 3 days. Graph represents mean±SEM of percent change in fluorescent intensity (Synapsin I and C3) or chemiluminescence (GSK-3β) relative to Vehicle (4A and 4D). Images represent the 4B) Vehicle and 4C) 5 μM 5c(i) treated groups stained with Synapsin I and DAPI. D) Cortical astrocytes from 6-month-old male mice were plated and treated with 5c(i) or Vehicle for 2 days. Cells were then washed and cortical neurons from 6-month-old male mice were added on top of the astrocytes. […] Scale bar=50 μm.
To determine if 5c(i) can modulate astrocytes, adult astrocytes from 6-month-old male mice were treated with 5c(i) for 3 days and stained with Synapsin I and C3 to measure changes in fluorescent intensity or western blot was conducted on the cell lysate to assess changes in GSK-3β expression (FIG. 4). […] To determine if 5c(i) treated astrocytes can directly benefit neuronal recovery, astrocytes were cultured with 5c(i) for 2 days before removing 5c(i) from the culture and plating adult neurons on top of the astrocytes for 2DIV, resulting in increased neuron survival and neurite growth. […]

Regarding “C-DIRG-C BODIPY® (fluorescent dye) [5c(i)]”, in experiment [1] (around the injury site), the “number of SOX9′ cells” value was “reduced” and the “prevalence of CD68+ cells” value is recorded as “significantly reduced”. Besides, in experiment [1] (at the injury site), the CD68 immunoreactivity entry is on record as “significantly reduced”. Also, in experiment [1] (caudal to the injury site), the “serotonergic (5-HT) axon immunoreactivity” value was “increased”. Also, in experiment [1] (spinal cord), the IBA1 immunoreactivity result was “reduced”. Also, the “Synapsin I production” value in the experiment with Synapsin I is on record as “significant increase”.
